Source: ChEMBL document CHEMBL5726559, “Aryl, heteroaryl, and heterocyclic compounds for treatment of complement mediated disorders” (2017)

The compounds below were run against Complement factor D (Homo sapiens, UniProt P00746) (assay: Factor D Assay: Human factor D (purified from human serum, Complement Technology, Inc.) at 80 nM final concentration is incubated with test compound at various concentrations for 5 minutes at room temperature in 50 mM Tris, 1M NaCl, pH 7.5. A synthetic substrate Z-L-Lys-SBzl and DTNB (Ellman's reagent) are added to final concentrations of 100 μM each. The increase in color is recorded at OD405 nm in a microplate in kinetic mode over 30 minutes with 30 second time points in a spectrofluorimeter. IC50 values are calculated by non-linear regression from the percentage of inhibition of complement factor D activity as a function of test compound concentration.).
Sequence of Complement factor D (P00746 whole entry): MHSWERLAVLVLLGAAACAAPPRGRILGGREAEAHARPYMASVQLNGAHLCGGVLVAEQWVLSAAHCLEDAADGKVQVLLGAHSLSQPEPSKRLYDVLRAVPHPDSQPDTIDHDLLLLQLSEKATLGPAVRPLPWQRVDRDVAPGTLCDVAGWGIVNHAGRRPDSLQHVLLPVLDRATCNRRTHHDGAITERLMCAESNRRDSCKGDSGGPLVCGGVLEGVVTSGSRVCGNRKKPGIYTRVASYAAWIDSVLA
In the case of `CC(=O)c1cn(CC(=O)N2C[C@H](F)C[C@H]2C(=O)Nc2cccc(Cl)n2)c2ccc(-c3ccnnc3)cc12`, the IC50 is reported as under 1000 nM.
`CC(=O)c1cn(CC(=O)N2C[C@H](F)C[C@H]2C(=O)Nc2cccc(Br)n2)c2ccc(-c3ccc(C)nn3)cc12` showed an IC50 of under 1000 nM.
With `NC(=O)c1nn(CC(=O)N2C[C@H](F)C[C@H]2C(=O)Nc2cccc(Cl)n2)c2ccc(-c3ccnnc3)cc12` the IC50 was under 1000 nM.
